Experimental data published in patent publication US10711036B2, “MALT1 inhibitors and uses thereof” (Cornell University, priority 2015, dated 2020).
Where a SMILES comes first, the peptide text is derived from it. [ ]: non-standard residue; d: D form. The star is where a group is joined. ξ: configuration not given here. Hyp = O=C(O)[C@@H]1C[C@@H](O)CN1; Ile(3ξ) = CCC(C)[C@H](N)C(=O)O; Chg = N[C@H](C(=O)O)C1CCCCC1; NMeV = CN[C@H](C(=O)O)C(C)C; Pip = O=C(O)[C@@H]1CCCCN1; Ac5c = NC1(C(=O)O)CCCC1; Cbz = O=C(OCc1ccccc1)*; CH2F = FC*

Assays:
MALT1 = MALT1 (Homo sapiens (Human), UniProt Q9UDY8); test: Inhibition constants (Ki) for inhibition of MALT1; type: biochemical; conditions: 100 nM MALT1 used for the assay
Chain of MALT1 (Q9UDY8 whole entry): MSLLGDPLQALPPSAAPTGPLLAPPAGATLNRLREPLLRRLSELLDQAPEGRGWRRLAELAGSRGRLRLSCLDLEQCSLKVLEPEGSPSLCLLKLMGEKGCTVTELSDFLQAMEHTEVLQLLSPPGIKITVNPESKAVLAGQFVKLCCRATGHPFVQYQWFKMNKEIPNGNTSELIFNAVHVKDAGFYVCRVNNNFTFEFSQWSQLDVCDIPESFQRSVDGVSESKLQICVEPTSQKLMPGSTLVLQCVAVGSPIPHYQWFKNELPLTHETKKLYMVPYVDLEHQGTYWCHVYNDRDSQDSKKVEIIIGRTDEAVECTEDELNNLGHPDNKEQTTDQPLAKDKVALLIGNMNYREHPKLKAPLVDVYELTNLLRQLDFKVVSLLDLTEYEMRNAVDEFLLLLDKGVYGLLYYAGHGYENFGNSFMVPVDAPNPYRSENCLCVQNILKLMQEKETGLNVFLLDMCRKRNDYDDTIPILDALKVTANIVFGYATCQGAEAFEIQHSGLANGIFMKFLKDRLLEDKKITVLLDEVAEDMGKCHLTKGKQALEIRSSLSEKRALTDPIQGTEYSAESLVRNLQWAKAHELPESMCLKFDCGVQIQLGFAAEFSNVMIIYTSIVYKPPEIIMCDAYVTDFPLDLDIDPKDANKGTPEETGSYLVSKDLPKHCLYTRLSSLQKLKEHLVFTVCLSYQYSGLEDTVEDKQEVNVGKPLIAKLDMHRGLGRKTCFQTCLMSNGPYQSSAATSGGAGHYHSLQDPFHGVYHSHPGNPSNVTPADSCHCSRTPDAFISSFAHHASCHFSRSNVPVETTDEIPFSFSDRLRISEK
Protocol: For exemplary compounds of the disclosure, Ki for inhibition of MALT1 was measured (Table E11). A concentration of 100 nM MALT1 was used for the assay.

OCI-LY3 [1] = test: Cell growth inhibition assay (CellTiter-Glo, 96 hours), OCI-LY3; type: cell-based, human; conditions: OCI-LY3 cells, treated at t=0 and t=48 hours, ATP luminescence
Protocol: DLBCL cell lines were grown in exponential growth conditions during the 96 hours of treatment. Cells were treated twice: at t=0 and t=48 hours, and cell viability was determined by ATP quantification using a luminescent method ([…]-GLO, Promega, Madison, Wis.). Cell viability in drug-treated cells was normalized to vehicle controls (fractional viability) and results are given as 1-fractional viability.
Experiments were Performed in Triplicate.

OCI-LY3 [2] = test: Maximum killing effect on OCI-LY3; type: cell-based, human
Protocol: (§1) The maximum killing effects on cell-lines OCI-LY3, TMD8, and OCI-LY1 were also measured for select compounds at inhibitor concentration of 20 μM and 5 μM. TMD8 is another line of ABC type diffuse large-B cell lymphoma, while OCI-LY1 is a DLBCL line of the germinal center B-cell subtype.

TMD8 = test: Maximum killing effect on TMD8; type: cell-based
Protocol: as §1

OCI-LY1 = test: Maximum killing effect on OCI-LY1; type: cell-based
Protocol: as §1

RelB cleavage = test: Western blot for RelB cleavage in OCI-LY3 cells; type: cell-based, human; conditions: OCI-LY3 cells pretreated with inhibitor, then 5 μM MG-132 for 2 hours
Protocol: FIG. 1A. Western blots for RelB and MALT1 after 30 minutes pretreatment with indicated doses of compounds or vehicle, followed by proteasome inhibitor MG-132 (5 μM) treatment for 2 hours in OCI-LY3. clev=cleavage product of RelB.
FIG. 1B. Western blots for RelB with indicated doses of compounds or vehicle in OCI-LY3.
Western blot: OCI-Ly3 cells (a line of human diffuse large B-cell lymphoma (ABC type)) were pre-treated for 30 minutes with indicated doses of MALT1 inhibitors followed by a 2-hour treatment with proteasome inhibitor MG-132 at 5 μM. Protein was then extracted in a PBS-based lysis buffer containing 1% NP-40. Equal amounts of total protein (50 to 75 μg) were separated on sodium dodecyl sulfate-polyacrylamide gel electrophoresis (SDS-PAGE), and electrotransferred onto nitrocellulose membranes. Membranes were incubated with primary antibodies (MALT1, from Santa Cruz Biotechnologies, Santa Cruz, Calif.; RELB from Cell Signaling, Danvers, Mass., and α-Tubulin from Sigma), followed by secondary antibodies conjugated to horseradish peroxidase, which were detected by chemiluminescence (Pierce, Thermo Scientific, Rockford, Ill.).
OCI-LY3 cells were pretreated with the an inhibitor at the desired concentration and subsequently treated with 5 μM MG-132, a proteasome inhibitor, for 2 hours.

| SMILES | Ki (MALT1) [nM] | GI50 (OCI-LY3 [1]; Homo sapiens) [nM] | other results |
| --- | --- | --- | --- |
| N=C(N)NCCC[C@H](NC(=O)[C@@H]1CCCN1C(=O)[C@@H](NC(=O)OCc1ccccc1)C1CCCCC1)C(=O)CF [Compound 102] (Cbz-[Chg]-Pro-Arg-CH2F) | 44 | 1450 | Maximum killing effect (OCI-LY3 [2]; OCI-LY3, 20 μM): 85%; Maximum killing effect (TMD8; TMD8, 20 μM): 54%; Maximum killing effect (OCI-LY1; OCI-LY1, 20 μM): 19% |
| CC(C)[C@H](NC(=O)OCc1ccccc1)C(=O)N1CCCC[C@H]1C(=O)N[C@@H](CCCNC(=N)N)C(=O)CF [Compound 107] (Cbz-Val-[Pip]-Arg-CH2F) | 40 | 730 | Maximum killing effect (OCI-LY3 [2]; OCI-LY3, 5 μM): 38%; Maximum killing effect (OCI-LY3 [2]; OCI-LY3, 20 μM): 85%; Maximum killing effect (TMD8; TMD8, 5 μM): 29%; Maximum killing effect (TMD8; TMD8, 20 μM): 58%; Maximum killing effect (OCI-LY1; OCI-LY1, 5 μM): 3%; Maximum killing effect (OCI-LY1; OCI-LY1, 20 μM): 11%; Inhibition of RelB cleavage (Western blot) (RelB cleavage): inhibition of RelB cleavage |
| CC(C)[C@H](NC(=O)OCc1ccccc1)C(=O)N1C[C@H](O)C[C@H]1C(=O)N[C@@H](CCCNC(=N)N)C(=O)CF [Compound 109] (Cbz-Val-[Hyp]-Arg-CH2F) | 53 | 290 | Inhibition of RelB cleavage (Western blot) (RelB cleavage): inhibition of RelB cleavage |
| CC(C)[C@H](NC(=O)c1ccccc1Br)C(=O)N1CCC[C@H]1C(=O)N[C@@H](CCCNC(=N)N)C(=O)CF [Compound 114] | 105 | 4240 | Maximum killing effect (OCI-LY3 [2]; OCI-LY3, 20 μM): 80%; Maximum killing effect (TMD8; TMD8, 20 μM): 40%; Maximum killing effect (OCI-LY1; OCI-LY1, 20 μM): 9% |
| CC(C)[C@H](NC(=O)c1cccc(Br)c1)C(=O)N1CCC[C@H]1C(=O)N[C@@H](CCCNC(=N)N)C(=O)CF [Compound 115] | 41 | 530 | Maximum killing effect (OCI-LY3 [2]; OCI-LY3, 20 μM): 84%; Maximum killing effect (TMD8; TMD8, 20 μM): 64%; Maximum killing effect (OCI-LY1; OCI-LY1, 20 μM): 15% |
| CC(C)[C@H](NC(=O)C1CCCCC1)C(=O)N1CCC[C@H]1C(=O)N[C@@H](CCCNC(=N)N)C(=O)CF [Compound 120] | 56 | 940 | Maximum killing effect (OCI-LY3 [2]; OCI-LY3, 20 μM): 81%; Maximum killing effect (TMD8; TMD8, 20 μM): 52%; Maximum killing effect (OCI-LY1; OCI-LY1, 20 μM): <0% |
| CC(C)[C@H](NC(=O)c1cccc2ccccc12)C(=O)N1CCC[C@H]1C(=O)N[C@@H](CCCNC(=N)N)C(=O)CF [Compound 153] | 102 | 160 | – |
| CC(C)[C@H](NC(=O)/C=C/c1ccccc1)C(=O)N1CCC[C@H]1C(=O)N[C@@H](CCCNC(=N)N)C(=O)CF [Compound 154] | 36 | 110 | – |
| CC(C)[C@H](NC(=O)c1ccc2ccccc2n1)C(=O)N1CCC[C@H]1C(=O)N[C@@H](CCCNC(=N)N)C(=O)CF [Compound 155] | 55 | 570 | – |
| CC(C)[C@H](NC(=O)c1cnc2ccccc2c1)C(=O)N1CCC[C@H]1C(=O)N[C@@H](CCCNC(=N)N)C(=O)CF [Compound 156] | 40 | 3880 | – |
| CC(C)[C@H](NC(=O)c1ccc2cnccc2c1)C(=O)N1CCC[C@H]1C(=O)N[C@@H](CCCNC(=N)N)C(=O)CF [Compound 157] | 59 | 630 | – |
| CC(C)[C@H](NC(=O)c1ccc2ccncc2c1)C(=O)N1CCC[C@H]1C(=O)N[C@@H](CCCNC(=N)N)C(=O)CF [Compound 158] | 110 | 1700 | – |
| CC(C)[C@H](NC(=O)c1ccnc2ccccc12)C(=O)N1CCC[C@H]1C(=O)N[C@@H](CCCNC(=N)N)C(=O)CF [Compound 159] | 139 | 4220 | – |
| CC(C)[C@H](NC(=O)c1ccc(F)cc1)C(=O)N1CCC[C@H]1C(=O)N[C@@H](CCCNC(=N)N)C(=O)CF [Compound 160] | 13 | 2340 | – |
| CC(C)[C@H](NC(=O)c1ccc(F)cc1)C(=O)N1CCC[C@H]1C(=O)N[C@H](CCCNC(=N)N)C(=O)CF [Compound 161] | 346 | 910 | – |
| CC(C)[C@H](NC(=O)c1ccc(C(C)(C)C)cc1)C(=O)N1CCC[C@H]1C(=O)N[C@@H](CCCNC(=N)N)C(=O)CF [Compound 162] | 45 | 980 | – |
| CC(C)[C@H](NC(=O)Nc1ccc(Cl)cc1)C(=O)N1CCC[C@H]1C(=O)N[C@@H](CCCNC(=N)N)C(=O)CF [Compound 164] | 62 | 780 | – |

| SMILES | Ki (MALT1) [nM] | GI50 (OCI-LY3 [1]; Homo sapiens) [nM] | other results |
| --- | --- | --- | --- |
| CC(C)[C@H](NC(=O)Nc1cccc(Cl)c1)C(=O)N1CCC[C@H]1C(=O)N[C@@H](CCCNC(=N)N)C(=O)CF [Compound 165] | 27 | 520 | – |
| CC(C)[C@H](NC(=O)c1ccc(Br)cc1)C(=O)N1C[C@H](O)C[C@H]1C(=O)N[C@@H](CCCNC(=N)N)C(=O)CF [Compound 171] | 50 | 70 | – |
| N=C(N)NCCC[C@H](NC(=O)[C@H](CO)NC(=O)[C@@H](NC(=O)c1ccc(Br)cc1)C1CCCCC1)C(=O)CF [Compound 173] | 46 | 240 | – |
| CC(C)[C@H](NC(=O)c1ccc(Br)cc1)C(=O)N1COC[C@H]1C(=O)N[C@@H](CCCNC(=N)N)C(=O)CF [Compound 174] | 20 | 120 | – |
| CC(C)[C@H](NC(=O)c1ccc(Br)cc1)C(=O)N1CCOC[C@H]1C(=O)N[C@@H](CCCNC(=N)N)C(=O)CF [Compound 175] | 70 | 460 | – |
| CC(C)[C@H](NC(=O)c1ccc(Br)cc1)C(=O)N1CC[C@H]1C(=O)N[C@@H](CCCNC(=N)N)C(=O)CF [Compound 176] | 118 | 770 | – |
| CC(C)[C@H](NC(=O)c1ccc(Br)cc1F)C(=O)N1CCC[C@H]1C(=O)N[C@@H](CCCNC(=N)N)C(=O)CF [Compound 179] | 71 | 810 | – |
| CCC(C)[C@H](NC(=O)OCc1ccccc1)C(=O)N1CCC[C@H]1C(=O)N[C@@H](CCCNC(=N)N)C(=O)CF (stereo partly drawn) [Compound 180] (Cbz-[Ile(3ξ)]-Pro-Arg-CH2F) | 30 | 2440 | – |
| N=C(N)NCCC[C@H](NC(=O)[C@@H]1CCCN1C(=O)C1(NC(=O)OCc2ccccc2)CCCC1)C(=O)CF [Compound 181] (Cbz-[Ac5c]-Pro-Arg-CH2F) | 1180 | 4310 | – |
| N=C(N)NCCC[C@H](NC(=O)[C@@H]1CCCN1C(=O)[C@H](Cc1ccccc1)NC(=O)OCc1ccccc1)C(=O)CF [Compound 182] | 76 | 2300 | – |
| Cc1cc(Br)ccc1C(=O)N[C@H](C(=O)N1CCC[C@H]1C(=O)N[C@@H](CCCNC(=N)N)C(=O)CF)C(C)C [Compound 183] | 40 | 850 | – |
| CC(C)C[C@H](NC(=O)OCc1ccccc1)C(=O)N1CCC[C@H]1C(=O)N[C@@H](CCCNC(=N)N)C(=O)CF [Compound 184] (Cbz-Leu-Pro-Arg-CH2F) | 93 | 5490 | – |
| CC(C)C[C@H](NC(=O)c1ccc(Br)cc1)C(=O)N1CCC[C@H]1C(=O)N[C@@H](CCCNC(=N)N)C(=O)CF [Compound 185] | 182 | 1100 | – |
| N=C(N)NCCC[C@H](NC(=O)[C@@H]1CCCN1C(=O)[C@H](Cc1ccc(C(F)(F)F)cc1)NC(=O)c1ccc(Br)cc1)C(=O)CF [Compound 186] | 448 | 1370 | – |
| CC(C)C[C@H](NC(=O)OCc1ccccc1)C(=O)N(C)[C@H](C(=O)N1CCC[C@H]1C(=O)N[C@@H](CCCNC(=N)N)C(=O)CF)C(C)C [Compound 203] (Cbz-L[NMeV]PR-CH2F) | – | – | GI50 (OCI-LY3 [1]): 819 nM; Maximum killing effect (OCI-LY3 [2]; OCI-LY3, 20 μM): 79%; Maximum killing effect (TMD8; TMD8, 20 μM): 59%; Maximum killing effect (OCI-LY1; OCI-LY1, 20 μM): 3%; Inhibition of RelB cleavage (Western blot) (RelB cleavage): inhibition of RelB cleavage |
| CC(C)[C@H](NC(=O)OCc1ccccc1)C(=O)N[C@@H](CCCNC(=N)N)C(=O)N1CCC[C@H]1C(=O)N[C@@H](CCCNC(=N)N)C(=O)CF [Z-VRPR-fmk, reference compound] | – | – | Maximum killing effect (OCI-LY3 [2]; OCI-LY3, 5 μM): 42%; Maximum killing effect (OCI-LY3 [2]; OCI-LY3, 20 μM): 62%; Maximum killing effect (TMD8; TMD8, 5 μM): 27%; Maximum killing effect (TMD8; TMD8, 20 μM): 67%; Maximum killing effect (OCI-LY1; OCI-LY1, 5 μM): <0%; Maximum killing effect (OCI-LY1; OCI-LY1, 20 μM): <0% |
| CN1CCCC(CN2c3ccccc3Sc3ccccc32)C1 (stereo not drawn) [mepazine, reference compound] | – | – | Maximum killing effect (OCI-LY3 [2]; OCI-LY3, 5 μM): 35%; Maximum killing effect (OCI-LY3 [2]; OCI-LY3, 20 μM): 97%; Maximum killing effect (TMD8; TMD8, 5 μM): 32%; Maximum killing effect (TMD8; TMD8, 20 μM): 99%; Maximum killing effect (OCI-LY1; OCI-LY1, 5 μM): 6%; Maximum killing effect (OCI-LY1; OCI-LY1, 20 μM): 82% |
